Results taken from US5922775A, “Method of treating malignant tumors with ketone thyroxine analogues having no significant hormonal activity” (priority 1997, dated 1999).

Legend:
[1] = tested on: microtubule protein (MTP); assay: Microtubule assembly (MTP polymerization) in vitro, optical test at 350 nm; assay type: biochemical, bovine or rabbit (brain)
Description: This inhibition is critically dependent on the concentration of GTP. The quantitative correlation between the concentrations of DIME and GTP, under conditions of a linear rate of MTP polymerization, follows Michaelis-Menten kinetics and the inhibition portrays a "mixed" type, where km for GTP and Vmax are altered simultaneously. Chemical analogues of DIME inhibit MTP polymerization parallel to their antitumorigenic action in vivo. The MTP site is one of the early cellular response sites of DIME.
J. Oncol. Abnormal spindle structures could be the result of DIME-MTP interaction or reactions of DIME with components of the microtubule organizing center or with as yet undefined systems sequentially or in concert. Since time-dependent quantitative analysis of the MTP system in situ is unsuitable for initial velocity measurement we adapted the in vitro assembly system of neurotubules as a model for a quantitative analysis of the interaction of DIME with MTP. […] The time course of MTP assembly consists of initiation and propagation and termination steps, Gaskin, et al., 1974, "Turbidimetric studies of the in vitro assembly and disassembly of porcine neurotubules", J. Mol. Biol. 89:737-758. The rate of propagation under defined conditions is sufficiently linear to permit kinetic analysis, that can be evaluated with respect DIME and GTP concentrations. As we show here the inhibition of MTP assembly by DIME occurs in the same range of drug concentration as required to inhibit tumorigonesis in vivo, or to inhibit cell replication or induce eventual cell death; Mendeleyev, et al., 1997. "Structural specificity and tumoricidal action of methyl-3,5-diiodo-4-(4'-methoxyphenoxy)benzoate (DIME)" Int. J. Oncol., 10:689-695. Therefore the DIME-MTP interaction is most probably a component of the apparently pleiotropic cellular mechanism of action of DIME.
Preparation of MTP and an optical test for polymerization was adopted from published methods, Gaskin, et al., 1974, "Turbidimetric studies of the in vitro assembly and disassembly of porcine neurotubules", J. Mol. Biol. 89:737-758; Tiwari, et al., 1993, "A pH and temperature-dependent cycling method that doubles the yield of microtubule protein", Anal. Biochem. 215:96-103. Bovine or rabbit brain was homogenized in an equal volume of ice cold buffer containing 100 mM Pipes/K^+ (pH 7.4), 4 mM EGTA. 1 mM MgCl2, 0.5 mM DTT and 0.1 mM PMSF, and centrifuged at 39,000 g for 1 hour at 4° C. To the supernatant, DMSO (8% final concentration) and GTP (1 mM final concentration) were added, followed by incubation at 37° C. for 30 minutes. Microtubules were pelleted at 100,000 g at 37° C. for 30 minutes. The pellets were incubated on ice for 15 minutes, followed by resuspension in ice cold PEM buffer (100 mM Pipes/K+ (pH 6.9), 1 mM EGTA, 1 mM MgCl2). This warm polymerization and cold depolymerization cycle was repeated once more and the cold, resuspended monomeric MTP (8-10 mg/ml protein) was used for the optical test for polymerization kinetics. Both rabbit or bovine brain yielded identical MTP preparations.
The polymerization reaction was started by the addition of […] of MTP solution (equivalent to 0.8-1.0 mg protein) and initial linear rates of increase in absorbance at 350 nm followed and recorded at 37° C. in a Perkin-Elmer 552 double beam spectrophotometer, equipped with a thermostatically controlled cuvette holder.
It is apparent that the rate of MTP polymerization proceeds in a linear manner, thus conditions for maximal polymerization rates as defined by Berne, B, 1974, "Interpretation of light scattering from long rods", J. Mol. Biol. 89:755-758 appear fulfilled. Therefore it is possible to determine the quantitative correlation between [DIME] and [GTP] by comparing the linear rate in the presence of varying drug and activator concentrations.
The assay system consisted of 240 μl of PEM buffer containing 8% DMSO […]
(added in 3 μl), or solvent control and 0.6 mg MTP (60 μl). […]

[2] = tested on: human mammary cancer cells (MDA-MB-231); conditions: 1 mM DIME [sic]; within 18 hours; cited from earlier work
cancer cells = assay: Blocking of mitosis in cancer cells; assay type: cell-based
human cancer cells = conditions: cited from earlier work
protein phosphatase 2A = conditions: cited from earlier work
[3] = tested on: human lung cancer cells (A 549); assay: Growth of human lung cancer cells (Table 2 B); assay type: cell-based
Description: The effects of these three substances on the growth of human mammary cancer cells (MDA-MB-231) and human lung cancer cells (A 549) are summarized in Table 2.
(×10^3) Cell number per 2 cm^2

mammary cancer cells = assay: Colony formation by mammary cancer cells (FIG. 1); assay type: cell-based, human; conditions: DIME vs DIPE
Description: FIG. 1 is a graph illustrating the cell killing effects of DIME and DIPE on mammary cancer colonies;
The effect of DIME and DIPE on colony formation by mammary cancer cells is illustrated in FIG. 1, where the results are superimposable, confirming that cytocidal action of DIME and DIPE are indistinguishable.

[4] = tested on: biosynthetic pathways of DNA, RNA or proteins; conditions: cited from earlier work
cellular esterases = assay: Stability against cellular esterases
Description: Moreover, amide analogs of DIME, having an NH2 or a substituted amino group, may be subject to hydrolysis catalyzed by cellular amidases. Since the hydrolysis product of such a hydrolysis is a carboxylic acid, the same decrease in efficacy can result. In order to decrease the chemical lability in the DIME pharmacophore structure, ketone analogues of DIME may be used.
A more detailed kinetic comparison of DIME, DIPE and DIPP on the kinetics of MTP assembly, in a concentration range of zero to 10 μM drug and a louvered GTP concentration (10 μM), is shown in FIG. 3.

[5] = tested on: non-malignant mouse pituitary adenoma; conditions: cited from earlier work
[6] = oral, 1 g/Kg/day for two to three months; cited from earlier work

Compound: COC(=O)c1cc(I)c(Oc2ccc(OC)cc2)c(I)c1 [DIME, methyl 3,5-diiodo-4-(4'-methoxyphenoxy)benzoate]
- Percent inhibition of intitial velocity (microtubule assembly in vitro) ([1]; 10 μM drug, GTP 1 mM, 37° C., averages of duplicate assay): 93%
- change of km GTP ([1]; 1 mM DIME [sic]): ~50%
- decrease of Vmax ([1]; 1 mM DIME [sic]): ~50%
- Km ([1]; 1 mM DIME [sic], from 6.7 mM without drug, read-out: km GTP in presence of DIME): 14 µM
- inhibition of MTP polymerization with increasing DIME ([1]; 1 mM GTP, increasing DIME concentrations): progressively inhibit MTP polymerization
- inhibition of GTP-dependent polymerization of MTP ([1]; DIME at 1 to 5 mM as printed): inhibits the GTP-dependent polymerization of MTP
- type of inhibition of MTP polymerization (DIME vs GTP) ([1]; double reciprocal plot / Michaelis-Menten, 1 mM DIME): "mixed" type inhibition
- inhibitory action on MTP assembly (comparison, FIG. 2) ([1]; drug concentrations up to 20 μM): similar
- order of potency on MTP assembly (FIG. 3) ([1]; zero to 10 μM drug, lowered GTP concentration (10 μM)): DIME>DIPE>DIPP
- abnormal spindle structures [2]: induced abnormal spindle structures
- blocking of mitosis in cancer cells (cancer cells): capable of blocking mitosis in cancer cells
- cytostatic / cytocidal activity (human cancer cells; cellular assays and in vivo): highly active both in cellular assays and in vivo
- growth inhibition of malignant cell types (human cancer cells): inhibit the growth of a variety of malignant cell types
- tumor cell apoptosis (human cancer cells): induce tumor cell apoptosis preceded by micronucleation
- tumoricidal activity in cell cultures (human cancer cells): potential tumoricidal agent both in cell cultures and in vivo
- activation of protein phosphatase 2A (protein phosphatase 2A): directly activates protein phosphatase 2A
- Cell number ([3]; 2 μM, 48 hours, control 110): 100 ×10^3 cell number per 2 cm^2 w
- Cell number ([3]; 2 μM, 72 hours, control 190): 180 ×10^3 cell number per 2 cm^2 w
- Cell number ([3]; 5 μM + BNPP 150 μM (esterase inhibitor), 48 hours, control 110): 24 ×10^3 cell number per 2 cm^2 w
- Cell number ([3]; 5 μM + BNPP 150 μM (esterase inhibitor), 72 hours, control 190): 15 ×10^3 cell number per 2 cm^2 w
- Cell number ([3]; 5 μM, 48 hours, control 110): 72 ×10^3 cell number per 2 cm^2 w
- Cell number ([3]; 5 μM, 72 hours, control 190): 135 ×10^3 cell number per 2 cm^2 w
- effect of esterase inhibitor BNPP on cytocidal action ([3]; lung cancer cells, with BNPP): the esterase inhibitor supported the DIME effect (at 72 hrs)
- effect on colony formation (FIG. 1) (mammary cancer cells): superimposable
- inhibition of biosynthetic pathways of DNA, RNA or proteins [4]: nor does it inhibit the biosynthetic pathways of DNA, RNA or proteins
- stability against esterases (cellular esterases): labile with respect to hydrolysis catalyzed by cellular esterases
- inhibition of growth of non-malignant pituitary tumor [5]: no inhibitory activity
- toxicity [6]: not toxic
